Values joined by “and” are separate entries in the source; they are usually repeats but may differ in a detail not shown here. Identical values can stand only once.
How the values were obtained:
[1] = target: purified human PMN MMP-8 (Homo sapiens (Human), UniProt P22894); experiment: MMP-8 inhibition in vitro, synthetic octapeptide substrate, tripeptide products by HPLC; format: biochemical
[2] = tested on: neonatal rat ventricular myocytes; experiment: Hydrogen peroxide induced LDH release; format: cell-based; details: H2O2 100 μM, compound 10 μM
Protocol: Neonatal rat ventricular myocytes, serum starved for 24 h, were treated with the inhibitors 1 h prior to the addition of 100 μM of hydrogen peroxide (Sigma). LDH release in the conditioned media was quantified using CytoTox-ONE Homogeneous Membrane Integrity Assay reagent (Promega) at the indicated time points.

[3] = tested on: PC-3 human prostate cancer cells; experiment: MMP-9 in conditioned media of PC-3 cells (gelatin zymography, Western blot); format: cell-based; details: 10 μM and 20 μM, 48 hr
Protocol: Compound 1 was evaluated in a cell culture model of cancer. […] After the incubation, aliquots of the conditioned media were assayed for MMP-9 (gelatinase B) by either of two techniques, gelatin zymoyraphy (in the presence of 2 or 10 mMCa^++) and Western blot (both assays used purified MMP-9, 92 kDa gelatinase, as a standard).

[4] = Alveolar bone loss in diabetic rats; format: in vivo, rat; details: very high oral dose (500 mg/kg), 3 weeks
Protocol: (§1) At the end of the treatment protocol, the rats were sacrificed, blood samples were collected, and whole skin (except over limbs) and gingiva were dissected (the skin, because of ample quantities of tissue were analyzed for each rat separately; the gingiva, because of the tiny amounts that could be harvested per rat, were pooled for each experimental group, as prescribed previously for tetracycline studies (30). In addition, the jaw bones were collected, defleshed, and bone loss around the teeth analyzed morphometrically as described previously (42, 43).
Alveolar bone loss (the signature pathologic event in inflammatory periodontal disease) was assessed in the defleshed jaws of the compound 1-treated (TX) and untreated rats. Briefly, little or no difference in bone loss was seen comparing the untreated non-diabetic and untreated diabetic rat jaws (enhanced bone loss has been observed in diabetic rats previously when the duration of the hyperglycemia was greater than the 3-week experiment described herein).

[5] = target: MMP-2 (Rattus norvegicus (Rat), UniProt P33436); experiment: Skin MMP-2 by ELISA in diabetic rats; format: in vivo; details: both low and high doses
Protocol: as §1

[6] = Solubility in aqueous solutions; format: physicochemical
[7] = Hyperglycemia in streptozotocin-diabetic rats, 1-week oral treatment; format: in vivo, rat; details: 100 mg/kg oral once/day for 7 days
Source text: The purpose of the following was to establish an in vivo model of excessive collagen degradation to be used to test efficacy of the compounds of the subject invention. Male Sprague-Dawley rats (typically 300-400 gms of body weight), specific viral antibody free, were ordered from Charles River. Following general anesthesia via isoflurane anesthetic inhalation, diabetes was induced by an I.V. administration of streptozotocin (STZ) (50* mg/kg body weight) (Sigma Chemical Co., St Louis, Mo., USA) diluted in 0.9% citrated saline (pH 4.5), after 12 hours of fasting. After the streptozotocin injection, the animals were given free access to water and food. […] In this test, the test-paper color changes to dark brown which indicates glycosuria.
The latter assays were carried out using Western blot analysis with monoclonal antibodies to MMP-8.

[8] = target: MMP-9 (human leukocyte gelatinase) (Homo sapiens (Human), UniProt P14780); experiment: MMP-9 inhibition in vitro, octapeptide/HPLC; format: biochemical
[9] = tested on: human monocytes; experiment: Cytotoxicity in human monocytes (MTS); format: cell-based
Protocol: Briefly, human peripheral blood monocytes (HMs) were isolated from a leukocyte concentrate by density gradient centrifugation (Lymphoprep) and the isolated HMs cultured (2 h, 37° C.) to remove non-adherant cells. […] After incubation, the proinflammatory cytokines, TNFα, IL-1β, MCP-1 and IL-6 were measured in the conditioned media by ELISA and cytotoxicity was assessed by measuring the absorbance (490 ran) of formazan produced by reduction of MTS. The HMs alone ±0.1-0.5% DMSO produced minimal levels of these pro-inflammatory cytokines. However, addition of 100 ng/ml or 10 μg/ml of LPS both dramatically stimulated cytokine production.

[10] = tested on: LPS-challenged human monocytes; experiment: Cytokine and growth factor levels in LPS-challenged human monocytes (Luminex multiplex); format: cell-based; details: 2 μM
Protocol: The cytokine levels were measured by Luminex multiplex, a method that allows the simultaneous measurement of different biological markers.

[11] = tested on: neonatal rat ventricular myocytes; experiment: Doxorubicin mediated caspase-3 activity; format: cell-based; details: doxorubicin 500 nM, 6 h and 24 h, compounds 10 μM
Protocol: Neonatal rat ventricular myocytes, serum starved for 24 h, were treated with the inhibitors 1 h prior to the addition of 500 nM of doxorubicin (Sigma). At the indicated time points cells were washed with ice-cold phosphate buffered saline and lysed using RIPA buffer (Pierce) containing protease and phosphatase inhibitors (Sigma). Caspase-3 activity in the cell lysates was measured by incubation with 7-amino-4-trifluoromethyl coumarin (Enzo).

[12] = target: IL-1β (Rattus norvegicus (Rat), UniProt Q63264); experiment: Gingiva IL-1β by ELISA in diabetic rats; format: in vivo; details: lower oral dose (100 mg/kg), 3 weeks
Protocol: as §1

[13] = Diabetic adverse events in rats; format: in vivo, rat; details: 1-week oral treatment, n = 6
[14] = tested on: TNF-α; experiment: TNF-α production by LPS-stimulated human monocytes (ELISA); format: cell-based; details: 10 and 20 μM
Protocol: Briefly, human peripheral blood monocytes (HMs) were isolated from a leukocyte concentrate by density gradient centrifugation (Lymphoprep) and the isolated HMs cultured (2 h, 37° C.) to remove non-adherant cells. The adherent HMs were cultured for 18 h (1×10^6 cells/well, 24-well plates)±endotoxin (LPS)±different compounds dissolved in DMSO (the final concentration of DMSO in the RPMI serum-free culture media with Pen./Strep, antibiotics was no greater than 0.5%). After incubation, the proinflammatory cytokines, TNFα, IL-1β, MCP-1 and IL-6 were measured in the conditioned media by ELISA and cytotoxicity was assessed by measuring the absorbance (490 ran) of formazan produced by reduction of MTS. The HMs alone ±0.1-0.5% DMSO produced minimal levels of these pro-inflammatory cytokines. However, addition of 100 ng/ml or 10 μg/ml of LPS both dramatically stimulated cytokine production.

Chain of purified human PMN MMP-8 (P22894 101-467): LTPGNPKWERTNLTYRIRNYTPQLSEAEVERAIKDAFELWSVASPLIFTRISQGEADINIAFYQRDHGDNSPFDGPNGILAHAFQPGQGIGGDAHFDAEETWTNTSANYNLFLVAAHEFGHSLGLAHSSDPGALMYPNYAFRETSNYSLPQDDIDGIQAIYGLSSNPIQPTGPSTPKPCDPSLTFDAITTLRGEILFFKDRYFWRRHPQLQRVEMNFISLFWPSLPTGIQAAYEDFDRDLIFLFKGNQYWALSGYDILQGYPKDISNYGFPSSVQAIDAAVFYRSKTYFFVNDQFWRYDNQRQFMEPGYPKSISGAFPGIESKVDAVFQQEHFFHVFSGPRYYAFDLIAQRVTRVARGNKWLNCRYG
Chain of MMP-9 (human leukocyte gelatinase) (P14780 94-707): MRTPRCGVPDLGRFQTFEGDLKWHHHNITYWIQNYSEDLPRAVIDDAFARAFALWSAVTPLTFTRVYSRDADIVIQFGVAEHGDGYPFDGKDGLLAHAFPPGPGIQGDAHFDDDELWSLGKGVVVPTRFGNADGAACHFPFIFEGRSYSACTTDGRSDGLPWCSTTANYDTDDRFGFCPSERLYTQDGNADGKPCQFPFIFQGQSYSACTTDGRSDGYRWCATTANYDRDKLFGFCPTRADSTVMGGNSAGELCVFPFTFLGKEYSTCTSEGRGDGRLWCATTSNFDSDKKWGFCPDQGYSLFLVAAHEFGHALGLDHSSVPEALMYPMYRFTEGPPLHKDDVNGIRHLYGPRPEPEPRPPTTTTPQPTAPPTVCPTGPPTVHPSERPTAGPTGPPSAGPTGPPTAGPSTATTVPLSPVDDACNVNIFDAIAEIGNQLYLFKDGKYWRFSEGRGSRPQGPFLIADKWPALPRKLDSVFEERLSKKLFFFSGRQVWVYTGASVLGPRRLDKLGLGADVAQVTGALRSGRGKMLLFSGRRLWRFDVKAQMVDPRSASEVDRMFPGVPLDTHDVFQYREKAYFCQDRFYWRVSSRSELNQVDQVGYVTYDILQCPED

With `c1cnc2c(c1)ccc1cccnc12` [1,10-phenanthroline, 1,10-O-phenanthroline] as the compound, how does the IC50 ([1]; read-out: IC50 against purified hMMP-8) read?
The IC50 was 10 µM and 35 µM.

Which “Effect on LDH release” value ([2]; 24 h) does the source give for `COC(=O)C(C(=O)/C=C/c1ccc(O)c(OC)c1)C(=O)/C=C/c1ccc(O)c(OC)c1` [Compound 1, 1,7-Bis(4-hydroxy-3-methoxyphenyl)-4-methoxycarbonylhepta-1E,6E-dien-3,5-dione] here?
Its value is “less dramatic effect”.

And the “Production and/or activity of MMP-9” value [3]?
Its value is “inhibited the production and/or activity of MMP-9”.

What about the “Reduction in alveolar bone loss vs untreated groups” value [4] of the same compound?
Its value is “less effective”.

And the “Reduction of elevated MMP-2 level in skin” value [5]?
Its value is 28%.

What about the Solubility [6] of the same compound?
Its Solubility is “more soluble than the insoluble natural product curcumin”.

And the “Effect on severity of hyperglycemia (serum glucose)” value [7]?
The value was “no effect”.

What about the IC50 [8] of the same compound?
The IC50 was 6 to 17 µM.

What about the “Cytotoxicity Monocytes @ 5 h incubation” value ([9]; 2 uM) of the same compound?
The value was 2 uM- 0%.

And the “Cytotoxicity Monocytes @ 5 h incubation” value ([9]; 10 uM)?
Its value is 10 uM- 0%.

And the “Reduction of MCP-1, TNFα and VEGF levels” value [10]?
The value was “potent in reducing”.

What about the “Modulation of doxorubicin mediated caspase-3 activity” value [11] of the same compound?
Its value is “None of the MMP inhibitors, including compound 1, negatively modulate caspase-3 activity”.

And the “Reduction of IL-1β in gingiva vs untreated diabetic” value [12]?
Its value is “about 18%”.

What about the “Description of AEs” value [13] of the same compound?
Its value is “Minor inflamed sclera”.

And the “Incidence of Adverse Events (AEs)” value [13]?
The value was 1/6.

With `COC(=O)C(C(=O)/C=C/c1ccc(O)cc1)C(=O)/C=C/c1ccc(O)cc1` [Compound 3, 1,7-Bis(4-hydroxyphenyl)-4-methoxycarbonylhepta-1E,6E-dien-3,5-dione] as the compound, how does the “IC50 collagenase (MMP-8) activity” value ([1]; Example 7 experiment, 37° C., 1 mM Ca++) read?
The value was “more potent as a collagenase or MMP inhibitor than compound 1”.

What about the Solubility [6] of the same compound?
Its Solubility is “more soluble in aqueous solutions than compound 1”.

And the IC50 [8]?
The IC50 was 6 to 17 µM.

Which IC50 [8] does the source give for `COc1cc(/C=C/C(=O)CC(=O)/C=C/c2ccc(N(C)C)cc2)ccc1O` [Compound 4] here?
The IC50 was 6 to 17 µM.

With `COc1cc(/C=C/C(=O)CC(=O)/C=C/c2ccc(O)c(OC)c2)ccc1O` [Curcumin, diferuloylmethane] as the compound, how does the “Effect on TNFα production by endotoxin-stimulated human monocytes” value [14] read?
The value was “no effect”.

And the Solubility [6]?
Its Solubility is “insoluble”.

What about the “Cytotoxicity Monocytes @ 5 h incubation” value ([9]; 10 uM) of the same compound?
The value was 10 uM- 0%.

What about the “Cytotoxicity Monocytes @ 18 h incubation” value ([9]; 10 uM, 18 h) of the same compound?
Its value is 10 uM- 0%.

What about the “Cytotoxicity associated with TNFα inhibitory effect” value ([9]; 50 and 100 μM, some precipitation in cell culture) of the same compound?
Its value is “significant cytotoxicity”.

With `CNC(=O)[C@H](Cc1c[nH]c2ccccc12)NC(=O)[C@@H](CC(=O)NO)CC(C)C` [GM-6001] as the compound, how does the “Effect on LDH release” value [2] read?
The value was “did not affect LDH release”.

For `CCOCOC[C@H](C[C@H](C)C(=O)NO)NC(=O)c1ccc(Oc2ccccc2)cc1` [ONO-4817], which “Effect on LDH release” value [2] is on record?
Its value is “did not affect LDH release”.
